Results as given in EP4772507A1, “AZAINDOLE COMPOUND AND MEDICAL DRUG” (Nippon Shinyaku Co., Ltd., priority 2023, dated 2025).

Legend:
[1] = test system: HEK293/API2-MALT1/NF-κB reporter cells; assay: Inhibition of reporter activity in HEK293/API2-MALT1/NF-κB reporter cells; type: cell-based; conditions: Homo sapiens, 24 hours with test substance, One-glo luminescence
Protocol: The API2-MALT1 fusion protein, expressed in MALT lymphoma, is known to constitutively activate the NF-κB pathway. To evaluate the inhibitory effect of the test substance on the NF-κB pathway in cells, a reporter activity inhibition test was conducted using HEK293/API2-MALT1/NF-κB reporter cells.
(§1) The test substance was prepared at a concentration of 10 mM in dimethyl sulfoxide (DMSO) and further diluted with DMSO to each of concentrations of 1000, 300, 100, and 10 µM. The solutions were further diluted 100-fold with DMEM medium containing 10% FBS to prepare test substance solutions.
HEK293/API2-MALT1/NF-κB reporter cells and 293T/CMV reporter cells (used as a negative control) were cultured in DMEM medium containing 10% FBS. Into a 384-well plate (#781080, Greiner), 6,000 cells were seeded in 30 µL per well, and after culturing for 24 hours, 3.3 µL of the adjusted test substance solution was added thereto (final concentrations: 10,000, 1,000, 100, and 10 nM). After culturing for 24 hours at 37°C in a 5% CO2 incubator, 33 µL of One-glo (Promega) was added to each well. After a 5-minute incubation at room temperature, luminescence was detected using a microplate reader (EnVision, PerkinElmer).
Using the measurement data, non-linear regression analysis was performed with the SAS system (SAS Institute Inc.) to estimate IC50.

[2] = test system: OCI-Ly3 cell lines; assay: Proliferation inhibition test, ABC-DLBCL cell line OCI-Ly3; type: cell-based; conditions: Homo sapiens; OCI-Ly3 (ABC-DLBCL, NF-κB pathway-dependent); 96 hours; Cell Counting Kit-8; read-out: Proliferation inhibitory activity against OCI-Ly3 IC50
Protocol: (§2) In ABC-DLBCL cell lines, the NF-κB pathway is constitutively activated due to mutations in the B-cell receptor pathway. To evaluate the proliferation inhibitory activity associated with the MALT1 inhibitory activity of the test substance, a proliferation inhibition test was conducted using ABC-DLBCL cell lines.
as §1, with “3,000, 1,000,” for “1000,”, “100, 30,” for “100,”, “IMDM” for “DMEM”
(§3) OCI-Ly3 cell lines (ABC-DLBCL, NF-κB pathway-dependent) were cultured in IMDM containing 10% FBS, and SU-DHL-4 cell lines (GCB-DLBCL, NF-κB pathway-independent, used as a negative control) were cultured in RPMI-1640 containing 10% FBS. Into a 96-well plate, 2,000 cells of the OCI-Ly3 cell line and 4,000 cells of the SU-DHL-4 cell line were seeded in 100 µL per well, and 11 µL of the adjusted test substance solution was added thereto (final concentrations: 10,000, 3,000, 1,000, 300, 100, 30, and 10 nM). After 96 hours of incubation at 37°C in a 5% CO2 incubator, 10 µL of Cell Counting Kit-8 (Dojindo Laboratories) was added to each well. After 4 hours of incubation at 37°C, absorbance at 450 nm was detected using a microplate reader (EnVision, PerkinElmer).
(§4) Using the measurement data, non-linear regression analysis based on a 2-parameter logistic model was performed with Spotfire (PerkinElmer) to estimate IC50 values.

[3] = test system: SU-DHL-4 cell lines; assay: Proliferation inhibition test, GCB-DLBCL cell line SU-DHL-4 (negative control line); type: cell-based; conditions: Homo sapiens; SU-DHL-4 (GCB-DLBCL, NF-κB pathway-independent, negative control); 96 hours; Cell Counting Kit-8; read-out: Proliferation inhibitory activity against SU-DHL-4 IC50
Protocol: as §2
as §1, with “3,000, 1,000,” for “1000,”, “100, 30,” for “100,”, “IMDM” for “DMEM”
as §3, §4

[4] = target: T1, C-terminal catalytic domain of MALT1 (amino acid residues 329-824) (Homo sapiens, UniProt Q9UDY8); assay: MALT1 protease inhibitory activity (enzyme activity inhibition assay, fluorogenic substrate); type: biochemical; conditions: substrate Ac-Leu-Arg-Ser-Arg-AMC 50 µM; 30°C for 2 hours; fluorescence
T1 construct: C-terminal catalytic domain of MALT1 (amino acid residues 329-824)
T1 sequence (Q9UDY8 329-824): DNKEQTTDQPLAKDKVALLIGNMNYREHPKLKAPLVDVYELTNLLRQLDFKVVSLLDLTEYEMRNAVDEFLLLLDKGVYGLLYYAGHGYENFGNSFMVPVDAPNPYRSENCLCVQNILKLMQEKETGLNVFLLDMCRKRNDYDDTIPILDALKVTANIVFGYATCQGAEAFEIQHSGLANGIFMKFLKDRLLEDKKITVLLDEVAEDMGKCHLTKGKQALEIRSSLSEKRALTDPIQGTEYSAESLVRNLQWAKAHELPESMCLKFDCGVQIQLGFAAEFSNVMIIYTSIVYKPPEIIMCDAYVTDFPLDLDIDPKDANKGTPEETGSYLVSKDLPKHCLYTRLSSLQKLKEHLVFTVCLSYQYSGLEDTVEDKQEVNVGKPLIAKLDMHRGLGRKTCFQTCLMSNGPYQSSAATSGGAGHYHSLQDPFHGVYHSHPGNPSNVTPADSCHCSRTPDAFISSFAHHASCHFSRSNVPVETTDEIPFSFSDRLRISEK
Protocol: To evaluate the enzyme inhibitory activity of a test substance against MALT1, an enzyme activity inhibition assay was conducted using the C-terminal catalytic domain of MALT1 (amino acid residues 329-824).
A test substance was prepared at a concentration of 10 mM in dimethyl sulfoxide (DMSO) and further diluted with DMSO to obtain final concentrations of 1000, 100, 10, 1, and 0.1 µM. The solutions were further diluted 25-fold with an assay buffer to prepare final test substance solutions. The composition of the assay buffer was 200 mM Tris/HCl HEPES (pH 7.5), 0.8 M Na citrate, 100 µM DTT, and 0.05% CHAPS.
The test substance solution was added to a 384-well black plate (#6007270, PerkinElmer) in an amount of 5 µL per well (n = 2; final concentrations of 10000, 1000, 100, 10, 1, and 0.1 nM), followed by the addition of 10 µL of MALT1 enzyme and finally 5 µL of a substrate solution (Ac-Leu-Arg-Ser-Arg-AMC, Peptide Institute, Inc.; final concentration in the reaction mixture: 50 µM), and after stirring, the mixture was allowed to react at 30°C for 2 hours. Fluorescence (excitation: 380 nm, emission: 460 nm) was detected using a microplate reader (EnVision, PerkinElmer).
Using the measurement data, non-linear regression analysis based on a 2-parameter logistic model was performed with Spotfire (PerkinElmer) to calculate IC50.

| Structure (SMILES) | IC50 [1] | IC50 [2] | IC50 [3] | IC50 [4] |
| --- | --- | --- | --- | --- |
| C[C@@H]1C[C@H](C(=O)c2cn(C)c3nc(-n4nccn4)c(Cl)cc23)CCN1c1ncncc1Br (racemic) [Example 33, [(2RS,4RS)-1-(5-bromopyrimidin-4-yl)-2-methylpiperidin-4-yl][5-chloro-1-methyl-6-(2H-1,2,3-triazol-2-yl)-1H-pyrrolo[2,3-b]pyridin-3-yl]methanone] | 0.64 µM | 0.79 µM | > 10 µM | 0.01 µM |
| C[C@@H]1C[C@H](C(=O)c2cn(C)c3nc(-n4nccn4)c(Cl)cc23)CCN1c1ccc(F)cc1N (racemic) [Example 34, [(2RS,4RS)-1-(2-amino-4-fluorophenyl)-2-methylpiperidin-4-yl][5-chloro-1-methyl-6-(2H-1,2,3-triazol-2-yl)-1H-pyrrolo[2,3-b]pyridin-3-yl]methanone] | 0.2 µM | 0.52 µM | > 10 µM | 0.013 µM |
| C[C@@H]1C[C@H](C(=O)c2c[nH]c3nc(C(=O)N4CCNCC4)c(Cl)cc23)CCN1c1ncc(F)cc1Cl (racemic) [Example 35, {5-chloro-3-[(2RS,4RS)-1-(3-chloro-5-fluoropyridin-2-yl)-2-methylpiperidine-4-carbonyl]-1H-pyrrolo[2,3-b]pyridin-6-yl}(piperazin-1-yl)methanone] | 0.39 µM | 0.63 µM | 9.5 µM | 0.037 µM |
| C[C@@H]1C[C@H](C(=O)c2cn(C)c3nc(S(=O)(=O)N4CCNCC4)c(Cl)cc23)CCN1c1ncc(F)cc1Cl (racemic) [Example 36, [(2RS,4RS)-1-(3-chloro-5-fluoropyridin-2-yl)-2-methylpiperidin-4-yl][5-chloro-1-methyl-6-(piperazin-1-ylsulfonyl)-1H-pyrrolo[2,3-b]pyridin-3-yl]methanone] | 0.28 µM | 0.41 µM | 2.5 µM | 0.02 µM |
| C[C@@H]1CC(C(=O)c2cn(CCO)c3nc(-n4nccn4)c(Cl)cc23)C[C@@H](C)N1c1ncc(F)cc1I (stereo partly drawn) [Example 4, [5-chloro-1-(2-hydroxyethyl)-6-(2H-1,2,3-triazol-2-yl)-1H-pyrrolo[2,3-b]pyridin-3-yl][(2R,6R)-1-(5-fluoro-3-iodopyridin-2-yl)-2,6-dimethylpiperidin-4-yl]methanone] | 0.23 µM | 0.45 µM | 7.2 µM |  |
| CCn1cc(C(=O)c2cnn(-c3cncc4c(F)cccc34)c2C(F)(F)F)c2cc(Cl)c(-c3ncccn3)nc21 [Example 13, [5-chloro-1-ethyl-6-(pyrimidin-2-yl)-1H-pyrrolo[2,3-b]pyridin-3-yl][1-(8-fluoroisoquinolin-4-yl)-5-(trifluoromethyl)-1H-pyrazol-4-yl]methanone] | 0.062 µM | 0.11 µM | 2 µM | 0.015 µM |
| C[C@@H]1CC(C(=O)c2cn(CCCO)c3nc(-n4nccn4)c(Cl)cc23)C[C@@H](C)N1c1ncc(F)cc1I (stereo partly drawn) [Example 15, [5-chloro-1-(3-hydroxypropyl)-6-(2H-1,2,3-triazol-2-yl)-1H-pyrrolo[2,3-b]pyridin-3-yl][(2R,6R)-1-(5-fluoro-3-iodopyridin-2-yl)-2,6-dimethylpiperidin-4-yl]methanone] | 0.17 µM | 0.72 µM | 8.4 µM |  |
| C[C@@H]1CC(C(=O)c2cn(C3CCS(=O)(=O)CC3)c3nc(-n4nccn4)c(Cl)cc23)C[C@@H](C)N1c1ncc(F)cc1I (stereo partly drawn) [Example 19, [5-chloro-1-(1,1-dioxotetrahydro-2H-thiopyran-4-yl)-6-(2H-1,2,3-triazol-2-yl)-1H-pyrrolo[2,3-b]pyridin-3-yl][(2R,6R)-1-(5-fluoro-3-iodopyridin-2-yl)-2,6-dimethylpiperidin-4-yl]methanone] | 0.13 µM | 0.24 µM | 2.5 µM | 0.092 µM |
| C[C@@H]1CC(C(=O)c2cn(C3CCOCC3)c3nc(-n4nccn4)c(Cl)cc23)C[C@@H](C)N1c1ncc(F)cc1I (stereo partly drawn) [Example 20, [5-chloro-1-(oxan-4-yl)-6-(2H-1,2,3-triazol-2-yl)-1H-pyrrolo[2,3-b]pyridin-3-yl][(2R,6R)-1-(5-fluoro-3-iodopyridin-2-yl)-2,6-dimethylpiperidin-4-yl]methanone] | 0.24 µM | 0.48 µM | 6.4 µM | 0.11 µM |
| C[C@@H]1CC(C(=O)c2cn([C@H]3CCOC3)c3nc(-n4nccn4)c(Cl)cc23)C[C@@H](C)N1c1ncc(F)cc1I (stereo partly drawn) [Example 21, {5-chloro-1-[(3S)-oxolan-3-yl]-6-(2H-1,2,3-triazol-2-yl)-1H-pyrrolo[2,3-b]pyridin-3-yl}[(2R,6R)-1-(5-fluoro-3-iodopyridin-2-yl)-2,6-dimethylpiperidin-4-yl]methanone] | 0.31 µM | 0.54 µM | 9 µM | 0.044 µM |
| C[C@@H]1CC(C(=O)c2cn([C@@H]3CCOC3)c3nc(-n4nccn4)c(Cl)cc23)C[C@@H](C)N1c1ncc(F)cc1I (stereo partly drawn) [Example 22, {5-chloro-1-[(3R)-oxolan-3-yl]-6-(2H-1,2,3-triazol-2-yl)-1H-pyrrolo[2,3-b]pyridin-3-yl}[(2R,6R)-1-(5-fluoro-3-iodopyridin-2-yl)-2,6-dimethylpiperidin-4-yl]methanone] | 0.28 µM | 0.53 µM | 8.9 µM | 0.07 µM |
| O=C(c1cnn(-c2cccc3c(F)cccc23)c1C(F)(F)F)c1c[nH]c2nc(-n3nccn3)c(Cl)cc12 [Example 23, [5-chloro-6-(2H-1,2,3-triazol-2-yl)-1H-pyrrolo[2,3-b]pyridin-3-yl][1-(5-fluoronaphthalen-1-yl)-5-(trifluoromethyl)-1H-pyrazol-4-yl]methanone] | 0.19 µM | 0.87 µM | 9.5 µM | 0.019 µM |
